The text below walks through data of US20240165085A1, “ORAL FELINE FEED AND METHODS FOR CONTROLLING TICK INFESTATIONS IN A FELINE” (priority 2021, published 2024).

Molecules are shown by their SMILES.

Data set [1] deals with Dermacentor variabilis. Briefly: Example 3: efficacy of afoxolaner and fluralaner liquid formulations per os in cats against Dermacentor variabilis. Format: in vivo. Conditions: treatment group 2, 0.075 mg/kg daily (Days 0-29), liquid formulation. From the text: Efficacy of Various Formulations of Isoxazoline Administered per os, i.e. by mouth, to Cats for the Treatment and Control of Dermacentor variabilis.
Methods: A pool of 36 cats are to be preliminarily infested with ˜50 unfed adult D. variabilis ticks in order to produce cats that can suitably sustain a reliable infestation rate, defined as approximately 25% of attached ticks being live at the end of a 48-hour period. The 30 cats with the highest live attached tick counts are to be selected for inclusion in the study. The cats are to be randomly assigned to a single control group and 4 treatment groups with 6 cats per treatment group.
(§1) The cats are to be housed individually during the study period and are to be fed a commercial dry cat food ration with ad libitum access to water.
Each cat in a treatment group (test groups 2-5) is to receive by mouth, preferably in combination with feed, a liquid formulation of isoxazoline. The dosage is to be administered to the cats on each of days 0-29 according to TABLE 2.
Cats in the control group are not to receive isoxazoline or any other tick control treatment. Each cat in the treatment group is to be offered its daily ration (dry food) and the individual doses of liquid formulation are to be administered after the individual cat has eaten at least 25% of its total daily ration. […]

Data set [2] can be described thus: Example 1: average plasma concentration of isoxazoline in cats, daily oral dosing. The conditions noted are these: 1.125 mg/kg daily. Format: in vivo, cat. Here is the method:
(§2) Each cat in the treatment group is to receive by mouth, preferably in combination with feed, a liquid formulation of isoxazoline. The dosage of 1.125 mg/kg is to be administered to the cats on each of days 0-29.
Using the same study method as described above, blood is to be drawn at 72, 168, 336, 504, 720 and 888 hours after the initial dose of isoxazoline is administered. The average concentration of isoxazoline in the blood can then be determined.

Data set [3] concerns Dermacentor variabilis. Briefly: Example 6: efficacy of Mivorilaner in medicated feed in cats against Dermacentor variabilis (FIG. 1). Format: in vivo. The conditions noted are these: days 0-29, within 16 days. Here is the method: FIG. 1. A graph of the arithmetic mean efficacy for treatment Group 2 (stars) and Group 3 (horizontal hash). Percent efficacy=[AM fleas CONTROL−AM fleas TREATED]/AM fleas CONTROL. Efficacy measured at 2, 16, 27, 30, and 37 days after Initial Treatment, with either 0.75 mg of Mivorilaner/kg (Group 2) or 1.5 mg of Mivorilaner/kg (Group 3).
(§3) Efficacy of Isoxazoline when Isoxazoline is Administered in a Medicated Feed for the Treatment and Control of Dermacentor variabilis.
Methods: A pool of cats are to be preliminarily infested with ˜100 unfed adult C. felis fleas in order to produce cats that can suitably sustain a reliable infestation rate, defined as approximately 50% retention of live fleas at the end of a 48-hour period. The cats with the highest live flea counts are to be randomly assigned to a single control group (Group 1) and 2 medicated feed treatment groups with 4 cats per group. The cats in groups 2 and 3 will receive Mivorilaner.
(§4) The cats are to be housed individually during the study period and are to have ad libitum access to water.
Each cat in a treatment group (Groups 2 and 3) is to receive a medicated daily feed from study days 0-29 according to TABLE 4.
The cats are to be fasted overnight prior to each daily treatment. […]

The nature of data set [4]: Example 5: plasma concentration of isoxazoline in cats given medicated daily feed. Type of data set: in vivo, cat. Here is the method:
(§5) Each cat in a treatment group (Groups 2-4) is to receive a medicated daily feed from study days 0-29. Each medicated daily feed (Groups 2-4) is to be offered to the cats for 1 hour on each of days 0-29 according to test groups in TABLE 3.
Using the same study method as described above, blood is to be drawn at day 0 (day of the first administration of medicated feed) and days 2, 4, 7, 10, 14, 21 and 30 after the initial dose of isoxazoline is administered on day 0. The average concentration of isoxazoline in the blood for different dosage levels can then be determined.

Data set [5] concerns Dermacentor variabilis. Briefly: Example 1: efficacy of isoxazoline per os in cats against Dermacentor variabilis (attached tick comb counts). Format: in vivo.
Text: Efficacy of Isoxazoline Administered per os, i.e. by mouth, to Cats for the Treatment and Control of Dermacentor variabilis.
Methods: A pool of 14 cats are to be preliminarily infested with ˜50 unfed adult D. variabilis ticks in order to produce cats that can suitably sustain a reliable infestation rate, defined as approximately 25% attached ticks being live at the end of a 48-hour period. The 12 cats with the highest live attached tick counts are to be selected for inclusion in the study. The cats are to be divided into a control group and a treatment group with 6 cats in each group.
as §1, §2
Cats in the control group are not to receive isoxazoline or any other tick control treatment. Each cat in the treatment group is to be offered its daily ration (dry food) and the individual doses of liquid formulation are to be administered after the individual cat has eaten at least 25% of its total daily ration. After receiving the dose of isoxazoline, the cats are to be allowed to continue eating. This mimics incorporating the isoxazoline in feed. […]

The nature of data set [6]: Example 4: plasma concentration of isoxazoline in cats given medicated feed. Type of data set: in vivo, cat. The conditions noted are these: medicated feed dosed at 1.5 mg/kg, five different feed formulations, Day 0 to Day 30. On the procedure: Plasma Concentration of Isoxazoline in Cats when Isoxazoline is Administered in a Medicated Feed Dosed at 1.5 mg/kg of the Cat's Weight.
Methods: A pool of 30 cats are to be assigned to 5 groups of 6 cats per group by weight to minimize variation between and within the groups. Each group will be given a different feed formulation containing isoxazoline and the blood level of isoxazoline over the one month period following the single daily dose will be determined.
as §4
There is to be an initial acclimation period of at least 4 days during which cats are to be transitioned from a standard certified commercial cat feed to an unmedicated version of the daily cat feed. During the acclimation period, the cats are to be allowed 15 minutes/day to consume the feed.
Each medicated feed formulation should be able to deliver approximately 14.1 g/kg of daily feed containing isoxazoline. The amount of medicated feed for each cat is to be determined according to the most recent body weight of the cat prior to the first day (Day 0) of the study. Each medicated feed is to be provided for 15 minutes daily from Day 0 up to and including Day 30. Any uneaten medicated feed remaining after each daily 15 minute timed offering period is to be removed, weighed and the amount recorded. […]

In data set [7] the test system is Dermacentor variabilis. Briefly: Example 5: efficacy of isoxazoline in medicated feed in cats against Dermacentor variabilis. Type of data set: in vivo. Conditions: 1 mg/kg, days 0-29, by day 14. On the procedure:
as §3
Methods: A pool of 24 cats are to be preliminarily infested with ˜50 unfed adult D. variabilis ticks in order to produce cats that can suitably sustain a reliable infestation rate, defined as approximately 25% of attached ticks being live at the end of a 48-hour period. The 18 cats with the highest live attached tick counts are to be randomly assigned to a single control group (Group 1) and 2 different medicated feed treatment groups (Groups 2 and 3) with 6 cats per group. The remaining 6 cats are to be assigned to a final medicated feed treatment group (Group 4).
as §4, §5
Cats in the control group are not to receive isoxazoline or any other tick control treatment. […]

For `O=C(CNC(=O)c1ccc(C2=NOC(c3cc(Cl)cc(C(F)(F)F)c3)(C(F)(F)F)C2)c2ccccc12)NCC(F)(F)F` (centres unmarked) [Afoxolaner, 4-{5-[3-chloro-5-(trifluoromethyl)phenyl]-5-(trifluoromethyl)-4,5-dihydroisoxazol-3-yl}-N-{2-oxo-2-[(2,2,2-trifluoroethyl)amino]ethyl}naphthalene-1-carboxamide], the efficacy entry in data set [1] (by day 14) is listed as “greater than 80%”; in data set [1] (by day 21) it was “greater than 90%”.
For the molecule `O=C(CNC(=O)c1sc(C2=NO[C@@](c3cc(Cl)c(F)c(Cl)c3)(C(F)(F)F)C2)c2c1CCC2)NCC(F)F` [mivorilaner, 3-[(5S)-5-(3,5-dichloro-4-fluorophenyl)-5-(trifluoromethyl)-4,5-dihydroisoxazol-3-yl]-N-[2-[(2,2-difluoroethyl)amino]-2-oxoethyl]-5,6-dihydro-4H-cyclopenta[c]thiophene-1-carboxamide], the average plasma concentration entry in data set [2] (day 3) was “about 1011 ng/mL”; in data set [2] (day 21) it was “about 4088”; in data set [2] (day 37, approximately 8 days after the final dose), “about 3025 ng/mL”. Further, the “efficacy (percent reduction in attached live and moribund tick counts)” value amounted to 100% in data set [3] (treatment group 2, 0.75 mg/kg daily in wet cat food) and 100% in data set [3] (treatment group 3, 1.5 mg/kg daily in wet cat food). Further, in data set [4] (treatment group 4, 3 mg/kg daily, versus groups 2 and 3, 1 mg/kg daily), the “plasma concentrations relative to treatment groups 2 and 3” value is 2.5-4 times higher. Further, the “plasma concentrations, comparison of feed formulations” value in data set [4] (treatment groups 2 and 3, 1 mg/kg daily, different feed formulations) is “consistent between treatment groups 2 and 3”. Also, the “reduction in attached tick counts over the control group” value in data set [5] (1.125 mg/kg by mouth daily days 0-29, within 7 days) is recorded as “at least 60%”; in data set [5] (1.125 mg/kg by mouth daily days 0-29, within 14 days), 90%. The mean plasma concentrations entry in data set [6] was “consistent with those achieved in Examples 1 and 2”. The efficacy entry is reported as “greater than 95%” in data set [7] (treatment group 2, medicated daily feed) and “greater than 95%” in data set [7] (treatment group 3, medicated daily feed).
